Measured values from patent publication US10166226B2, “CGRP receptor antagonists” (Heptares Therapeutics Limited, priority 2015, dated 2019).
In brackets after ≈: the same amount, converted by molar mass. Read-outs that look alike come from different tables or passages of the source.

Experiments:
human CGRP receptor = human CGRP receptor (Homo sapiens (Human), UniProt O60894+Q16602); assay: cAMP functional assay (HTRF) in SK-N-MC cells; type: cell-based; details: read-out: pKb average (converted)
Chain of human CGRP receptor (Q16602 23-461): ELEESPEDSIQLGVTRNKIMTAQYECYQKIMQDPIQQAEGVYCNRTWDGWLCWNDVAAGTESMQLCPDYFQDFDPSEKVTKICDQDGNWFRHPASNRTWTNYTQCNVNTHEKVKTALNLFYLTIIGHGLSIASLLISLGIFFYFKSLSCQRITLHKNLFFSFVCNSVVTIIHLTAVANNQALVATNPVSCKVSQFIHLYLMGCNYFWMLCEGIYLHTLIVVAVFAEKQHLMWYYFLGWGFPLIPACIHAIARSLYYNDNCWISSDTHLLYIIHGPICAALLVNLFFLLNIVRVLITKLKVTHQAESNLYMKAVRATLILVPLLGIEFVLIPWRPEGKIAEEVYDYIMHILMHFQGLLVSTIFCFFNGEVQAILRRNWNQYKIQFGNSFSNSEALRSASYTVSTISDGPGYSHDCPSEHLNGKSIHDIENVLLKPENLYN
Chain of human CGRP receptor (O60894 27-148): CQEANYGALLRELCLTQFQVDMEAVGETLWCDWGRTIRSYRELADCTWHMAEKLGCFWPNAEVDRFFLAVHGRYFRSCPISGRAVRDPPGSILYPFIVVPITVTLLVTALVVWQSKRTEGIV
Description: cAMP production following receptor activation was determined using the Homogeneous Time-Resolved Fluorescence (HTRF) cAMP dynamic-2 assay (Cisbio, France). The human neuroblastoma cell line SK-N-MC endogenously expressing the human CGRP receptor was seeded at a density of 12,500 cells/well in solid walled 96 well half area plates (Costar, Catalog Number 3688, Corning Life Sciences, Germany). After 16 h incubation at 37° C. media was removed and cells were incubated at 37° C. for 30 min in serum free media containing 500 μM IBMX (Tocris, Abingdon, UK, Catalog Number 2845) and increasing concentrations of test antagonist. Following this cells were challenged with an EC80 concentration of human CGRP (0.3 nM) for a further 30 min at 37° C. and then cAMP production was determined as manufacturer's instructions before plates were read on a PheraStar fluorescence plate reader (BMG LabTech, Germany). IC50 values were derived from the inhibition curve. The pIC50 values (where pIC50=−log10 IC50) were converted to a functional pKb value using a modified Cheng-Prussoff equation where Kd=agonist EC50 and L hot=agonist challenge concentration. The pKb values of certain compounds of the invention are detailed in Table 3.

[1] = biological target: Human CGRP receptors (consisting of CRLR and RAMP1) (Homo sapiens (Human), UniProt O60894+Q16602); assay: Radioligand binding assay (3H-telcagepant displacement); details: Sf21 cell membranes, 0.5 nM 3H-telcagepant, Ki by Cheng-Prussoff
Chain of Human CGRP receptors (consisting of CRLR and RAMP1) (Q16602 23-461): as the sequence (Q16602 23-461) above
Chain of Human CGRP receptors (consisting of CRLR and RAMP1) (O60894 27-148): as the sequence (O60894 27-148) above
Description: Human Calcitonin Receptor Like Receptor (CRLR) and human RAMP1 were cloned into Invitrogen's (ThermoFisher Scientific, UK) pFastBac dual expression vector. Transposition of CRLR/RAMP1 DNA was performed using Invitrogen's Bac-to-Bac Baculovirus Expression Systems. P0 baculovirus was generated by transfecting SF9 cells with bacmid DNA using Cellfectin® II transfection reagent (ThermoFisher Scientific, UK, catalog number 10362-100). Following P0 generation P1 virus was then generated ready for large scale infection and membrane preparation. Sf21 cells were grown in expression medium ESF921 (Expression Systems, USA, catalog number 96-001-01) supplemented with 10% heat-inactivated FBS and 1% Pen/Strep and were infected at a cell density of 2.5×10^6 cells/mL and an MOI of 2. Expression was carried out over 48 h in a shaking incubator set at 27° C. The cell culture was centrifuged at 2,500 rcf for 10 min at 4° C. The pellets were resuspended in cold PBS supplemented with Roche's Complete EDTA-free protease inhibitor cocktail tablets (Roche Applied Sciences, catalog number 05056489001), 1 mM PMSF and 1 mM EDTA. The resuspended cell paste was then centrifuged at 3,273 rcf for 12 min at 4° C. The supernatant was discarded and the pellet frozen at −80° C. The cell pellet from a 4 L culture was resuspended in buffer containing 50 mM Hepes pH 7.5, 150 mM NaCl, 8 Roche EDTA-free protease inhibitor cocktail tablets and 1 mM PMSF. The suspension was left stirring at rt for 1 h and then homogenised for 90 s at 9,500 rpm using a VDI 25 (VWR, USA) homogeniser. The cells were then lysed using a Microfluidizer processor M-110L Pneumatic (Microfluidics, USA). After lysis, the mixture was homogenised for 90 s at 9,500 rpm and then centrifuged at 335 rcf for 10 min. The supernatant was then further ultra-centrifuged at 42,000 rpm for 90 min. After ultra-centrifugation, the supernatant was discarded and the pellet was resuspended in 50 mL (25 mL for each 2 L culture) of buffer containing 50 mM Hepes pH 7.5, 150 mM NaCl, 3 Roche EDTA-free protease inhibitor cocktail tablets and 1 mM PMSF. The suspension was then homogenised for 90 s at 9,500 rpm. The resulting membranes were then stored at −80° C.
Human CGRP receptors (consisting of CRLR and RAMP1) expressed in insect Sf21 cell membrane homogenates were re-suspended in the binding buffer (10 mM HEPES, pH 7.4, 5 mM MgCl2, 0.2% BSA) to a final assay concentration of […]. Saturation isotherms were determined by the addition of various concentrations of ^3H-telcagepant (Ho et al, The Lancet, 2008, 372, 2115) (in a total reaction volume of 250 μL) for 60 min at room temperature. At the end of the incubation, membranes were filtered onto a unifilter, a 96-well white microplate with bonded GF/B filter pre-incubated with 0.5% PEI, with a Tomtec cell harvester and washed 5 times with distilled water. Non-specific binding (NSB) was measured in the presence of 10 nM MK-3207 hydrochloride (CAS No. 957116-20-0). Radioactivity on the filter was counted (1 min) on a microbeta counter after addition of 50 μL of scintillation fluid.

[2] = Thermodynamic solubility profiling; type: physicochemical; details: aqueous buffer, thermodynamic from solid
Description: A 50 mM DMSO stock solution of test compound was prepared, and from this, a working solution of 1 mM was prepared by dilution with DMSO. The UV absorbance of working solution was scanned from 220 nm to 1000 nm to identify the wavelength maxima of test compound. The 1 mM working solution was then serially diluted in DMSO to different concentrations to determine linearity/calibration curve. […] The resulting solution was then kept on a RotoSpin shaker at 50 rpm for 24 h at rt before the solution was filtered using 0.45 micron PVDF injector filters in order to remove the insoluble fraction of the compound. Subsequently, 150 uL of the filtrate is taken for quantification using a UV spectrophotometer, acquiring the optical density of standard solutions and test compound at the same wavelength maxima. From the optical density of test compound the thermodynamic solubility is calculated using the linearity/calibration curve and expressed as micromolar (μM). Solubility profiles of certain compounds of the invention are detailed in Table 6.

[3] = Pharmacokinetic profiling in rat; type: in vivo, male Sprague Dawley rats; details: male, Sprague Dawley, plasma
Description: Prior to IN dosing rats were anaesthetised with an intramuscular dose of 25-30 mg/kg ketamine cocktail (ketamine, xylazine hydrochloride and acepromazine maleate in saline) and the dose is introduced over 20-30 s via a polyethylene PE-10 tube inserted approximately 5 mm into the nasal cavity of the rat.
(§1) Following dosing by the routes above blood samples were taken at several time points (typically pre-dose, 0.083, 0.25, 0.5 1, 2, 4, 8 and 24 h) via serial tail vein bleeds (rat) or cephalic or saphenous vein (monkey) from the animal and centrifuged to separate plasma for analysis by LC/MS/MS assay. WinNonlin v6.2 statistics software (Pharsight Corporation, California, USA) was used to generate pharmacokinetic parameters using the non-compartmental model.

[4] = Pharmacokinetic profiling in cynomolgus monkey; type: in vivo, male Cynomolgus Monkeys; details: male, plasma, 0.5 mg/kg, acidified saline; for clearance: cynomolgus monkey iv; for bioavailability: cynomolgus monkey sc
Description: as §1

[5] = PBS buffer pH 7.4, 24 h at rt, read-out: Thermodynamic solubility pH 7.4
[6] = Sodium Phosphate Buffer pH 6.0, 24 h at rt, read-out: Thermodynamic solubility pH 6

| SMILES | Kb (human CGRP receptor) | pKi average [1] | solubility thermodynamic at 24 h [2, 5] | solubility thermodynamic at 24 h [2, 6] | bioavailability ([3]; inhaled or intranasal) | bioavailability ([3]; sc) | clearance [4] | bioavailability [4] |
| --- | --- | --- | --- | --- | --- | --- | --- | --- |
| Cc1nc[nH]c1C1CCN(C2CCN(C(=O)[C@@H](Cc3cc(C)c4[nH]ncc4c3)NC(=O)N3CCC(c4cc5ccccc5[nH]c4=O)CC3)CC2)CC1 [Example 2, N-[(2R)-1-[4-(4-methyl-1H-imidazol-5-yl)-1,4′-bipiperidin-1′-yl]-3-(7-methyl-1H-indazol-5-yl)-1-oxopropan-2-yl]-4-(2-oxo-1,2-dihydroquinolin-3-yl)piperidine-1-carboxamide] | 0.316 nM | 10.1 | 18 µM (≈ 12.7 µg/mL) | 2040 µM (≈ 1440 µg/mL) | 25% | 69% | 24 mL/min/kg | 100% |
| Cc1cc(C[C@@H](NC(=O)N2CCC(c3cc4ccc(F)cc4[nH]c3=O)CC2)C(=O)N2CCC(N3CCC(c4nncn4C)CC3)CC2)cc2cn[nH]c12 [Example 5, 4-(7-fluoro-2-oxo-1,2-dihydroquinolin-3-yl)-N-{(2R)-3-(7-methyl-1H-indazol-5-yl)-1-[4-(4-methyl-4H-1,2,4-triazol-3-yl)-1,4′-bipiperidin-1′-yl]-1-oxopropan-2-yl}piperidine-1-carboxamide] | 0.631 nM | 9.9 | 239 µM (≈ 173 µg/mL) | 1540 µM (≈ 1110 µg/mL) |  |  |  |  |
| CCOC(=O)c1nnc(C2CCN(C3CCN(C(=O)[C@@H](Cc4cc(C)c5[nH]ncc5c4)NC(=O)N4CCC(c5cc6ccccc6[nH]c5=O)CC4)CC3)CC2)[nH]1 [Example 6, ethyl 5-{1′-[(2R)-3-(7-methyl-1H-indazol-5-yl)-2-({[4-(2-oxo-1,2-dihydroquinolin-3-yl)piperidin-1-yl]carbonyl}amino)propanoyl]-1,4′-bipiperidin-4-yl}-4H-1,2,4-triazole-3-carboxylate] | 0.2 nM | 10.2 |  |  |  |  |  |  |
| Cc1nnc(C2CCN(C3CCN(C(=O)[C@@H](Cc4cc(C)c5[nH]ncc5c4)NC(=O)N4CCC(c5cc6ccccc6[nH]c5=O)CC4)CC3)CC2)[nH]1 [Example 8, N-{(2R)-3-(7-methyl-1H-indazol-5-yl)-1-[4-(5-methyl-4H-1,2,4-triazol-3-yl)-1,4′-bipiperidin-1′-yl]-1-oxopropan-2-yl}-4-(2-oxo-1,2-dihydroquinolin-3-yl)piperidine-1-carboxamide] | 0.316 nM | 10.0 | 359 µM (≈ 253 µg/mL) | 1220 µM (≈ 858 µg/mL) |  |  |  |  |
| Cc1cc(C[C@@H](NC(=O)N2CCC(c3cc4ccccc4[nH]c3=O)CC2)C(=O)N2CCC(N3CCC(c4nnc(C(=O)O)[nH]4)CC3)CC2)cc2cn[nH]c12 [Example 9, 5-{1′-[(2R)-3-(7-methyl-1H-indazol-5-yl)-2-({[4-(2-oxo-1,2-dihydroquinolin-3-yl)piperidin-1-yl]carbonyl}amino)propanoyl]-1,4′-bipiperidin-4-yl}-4H-1,2,4-triazole-3-carboxylic Acid] | 0.398 nM | 10.3 |  |  |  |  |  |  |

Further lines, results first:

| Kb (human CGRP receptor) | pKi average [1] | solubility thermodynamic at 24 h [2, 5] | solubility thermodynamic at 24 h [2, 6] | bioavailability ([3]; inhaled or intranasal) | bioavailability ([3]; sc) | clearance [4] | bioavailability [4] | SMILES |
| --- | --- | --- | --- | --- | --- | --- | --- | --- |
| 0.2 nM | 10.3 |  |  |  |  |  |  | Cc1cc(C[C@@H](NC(=O)N2CCC(c3cc4ccccc4[nH]c3=O)CC2)C(=O)N2CCC(N3CCC(c4ncc[nH]4)CC3)CC2)cc2cn[nH]c12 [Example 1, N-[(2R)-1-[4-(1H-imidazol-2-yl)-1,4′-bipiperidin-1′-yl]-3-(7-methyl-1H-indazol-5-yl)-1-oxopropan-2-yl]-4-(2-oxo-1,2-dihydroquinolin-3-yl)piperidine-1-carboxamide] |
| 0.398 nM | 9.8 | 2 µM (≈ 1.46 µg/mL) | 1250 µM (≈ 914 µg/mL) |  |  |  |  | CCCn1ccnc1C1CCN(C2CCN(C(=O)[C@@H](Cc3cc(C)c4[nH]ncc4c3)NC(=O)N3CCC(c4cc5ccccc5[nH]c4=O)CC3)CC2)CC1 [Example 3, N-{(2R)-3-(7-methyl-1H-indazol-5-yl)-1-oxo-1-[4-(1-propyl-1H-imidazol-2-yl)-1,4′-bipiperidin-1′-yl]propan-2-yl}-4-(2-oxo-1,2-dihydroquinolin-3-yl)piperidine-1-carboxamide] |
| 0.631 nM | 10.0 | 32 µM (≈ 22.6 µg/mL) | 1590 µM (≈ 1120 µg/mL) | 27% | 82% | 15 mL/min/kg | 100% | Cc1cc(C[C@@H](NC(=O)N2CCC(c3cc4ccccc4[nH]c3=O)CC2)C(=O)N2CCC(N3CCC(c4nncn4C)CC3)CC2)cc2cn[nH]c12 [Example 4, N-{(2R)-3-(7-methyl-1H-indazol-5-yl)-1-[4-(4-methyl-4H-1,2,4-triazol-3-yl)-1,4′-bipiperidin-1′-yl]-1-oxopropan-2-yl}-4-(2-oxo-1,2-dihydroquinolin-3-yl)piperidine-1-carboxamide] |
| 0.316 nM | 9.8 | 342 µM (≈ 236 µg/mL) | 785 µM (≈ 542 µg/mL) |  |  |  |  | Cc1cc(C[C@@H](NC(=O)N2CCC(c3cc4ccccc4[nH]c3=O)CC2)C(=O)N2CCC(N3CCC(c4nnc[nH]4)CC3)CC2)cc2cn[nH]c12 [Example 7, N-{(2R)-3-(7-methyl-1H-indazol-5-yl)-1-oxo-1-[4-(4H-1,2,4-triazol-3-yl)-1,4′-bipiperidin-1′-yl]propan-2-yl}-4-(2-oxo-1,2-dihydroquinolin-3-yl)piperidine-1-carboxamide] |
|  |  | 431 µM (≈ 375 µg/mL) | 150 µM (≈ 130 µg/mL) | 8% | 48% |  |  | NCCCC[C@H](NC(=O)[C@@H](Cc1cc(Br)c(O)c(Br)c1)NC(=O)N1CCC(N2Cc3ccccc3NC2=O)CC1)C(=O)N1CCN(c2ccncc2)CC1 [olcegepant, reference compound] |
